For 12 compounds, MIC results are on record in ChEMBL document CHEMBL1131216, “Anhydrolide macrolides. 2. Synthesis and antibacterial activity of 2,3-anhydro-6-O-methyl 11,12-carbazate erythromycin A analogues” (1998).

Converted amounts (≈) assume the structure as drawn. A value given as a limit tells only on which side of the number the result lay.

What all share (format): functional
Assay [1] has as its system Staphylococcus aureus. Nature of the assay: In vitro antibacterial activity of A-5278 strain of Gram positive bacteria Staphylococcus aureus.
Assay [2] concerns Streptococcus pneumoniae. The assay is described as follows: In vitro antibacterial activity of ATCC 6303 strain of Gram positive bacteria Streptococcus pneumoniae.
Assay [3] deals with Streptococcus pneumoniae. Nature of the assay: In vitro antibacterial activity of 5649 strain of Gram positive bacteria Streptococcus pneumoniae.
The next assay has as its system Haemophilus influenzae. Nature of the assay: In vitro antibacterial activity of DILL strain of Gram negative bacteria Haemophilus influenzae.
Assay [4] relates to Staphylococcus aureus. The assay is described as follows: In vitro antibacterial activity of 6538P strain of Gram positive bacteria Staphylococcus aureus.
Assay [5] deals with Staphylococcus aureus. Nature of the assay: In vitro antibacterial activity of A5177 strain of Gram positive bacteria Staphylococcus aureus.
Assay [6] has as its system Streptococcus pneumoniae. The assay is described as follows: In vitro antibacterial activity of 5979 strain of Gram positive bacteria Streptococcus pneumoniae.
Assay [7] deals with Streptococcus pyogenes. Nature of the assay: In vitro antibacterial activity of PIU2584 strain of Gram positive bacteria Streptococcus pyogenes.
Assay [8] has as its system Streptococcus pyogenes. The assay is described as follows: In vitro antibacterial activity of EES61 strain of Gram positive bacteria Streptococcus pyogenes.
In assay [9] the test system is Streptococcus pyogenes. The assay is described as follows: In vitro antibacterial activity of 930 strain of Gram positive bacteria Streptococcus pyogenes.

Turning to `CC[C@H]1OC(=O)C(C)C(=O)[C@H](C)[C@@H](O[C@@H]2O[C@H](C)C[C@H](N(C)C)[C@H]2O)[C@@](C)(OC)C[C@@H](C)C(=O)[C@H](C)[C@H]2N(NCCCc3ccnc4ccccc34)C(=O)O[C@]12C` (stereo not given in full), the MIC against Staphylococcus aureus [1] was above 100 µg/mL; against Streptococcus pneumoniae [2], 0.004 µg/mL (≈ 0.00502 µM); with Streptococcus pneumoniae [3] it was 0.5 µg/mL (≈ 0.627 µM); with Haemophilus influenzae it was 1 µg/mL (≈ 1.25 µM); with Staphylococcus aureus [4], 0.1 µg/mL (≈ 0.125 µM); in the assay on Staphylococcus aureus [5] it was 0.05 µg/mL (≈ 0.0627 µM). Besides, the MIC in the assay with Streptococcus pneumoniae [6] turned out to be 8 µg/mL (≈ 10 µM); against Streptococcus pyogenes [7] it was 0.25 µg/mL (≈ 0.314 µM); in the assay on Streptococcus pyogenes [8] it was 0.008 µg/mL (≈ 0.01 µM); against Streptococcus pyogenes [9], 2 µg/mL (≈ 2.51 µM).

For the compound `CC[C@H]1OC(=O)/C(C)=C/[C@H](C)[C@@H](O[C@@H]2O[C@H](C)C[C@H](N(C)C)[C@H]2O)[C@@](C)(OC)C[C@@H](C)C(=O)[C@H](C)[C@H]2N(NCCCc3ccc([N+](=O)[O-])cc3)C(=O)O[C@]12C`, the MIC with Staphylococcus aureus [1] is above 100 µg/mL; with Streptococcus pneumoniae [2], 0.03 µg/mL (≈ 0.0387 µM); in the assay on Streptococcus pneumoniae [3], 1 µg/mL (≈ 1.29 µM); with Haemophilus influenzae, 8 µg/mL (≈ 10.3 µM); against Staphylococcus aureus [4], 0.1 µg/mL (≈ 0.129 µM); against Staphylococcus aureus [5], 0.1 µg/mL (≈ 0.129 µM). Besides, the MIC in the assay with Streptococcus pneumoniae [6] was 64 µg/mL (≈ 82.6 µM); in the assay with Streptococcus pyogenes [7], 1 µg/mL (≈ 1.29 µM); against Streptococcus pyogenes [8] it was 0.03 µg/mL (≈ 0.0387 µM); against Streptococcus pyogenes [9], 64 µg/mL (≈ 82.6 µM).

`CC[C@H]1OC(=O)/C(C)=C/[C@H](C)[C@@H](O[C@@H]2O[C@H](C)C[C@H](N(C)C)[C@H]2O)[C@@](C)(OC)C[C@@H](C)C(=O)[C@H](C)[C@H]2N(NCCCc3ccc(O)cc3)C(=O)O[C@]12C`: the MIC was above 100 µg/mL with Staphylococcus aureus [1]; 0.004 µg/mL (≈ 0.00536 µM) in the assay with Streptococcus pneumoniae [2]; 1 µg/mL (≈ 1.34 µM) in the assay on Streptococcus pneumoniae [3]; 4 µg/mL (≈ 5.36 µM) against Haemophilus influenzae; 0.2 µg/mL (≈ 0.268 µM) against Staphylococcus aureus [4]; 0.1 µg/mL (≈ 0.134 µM) in the assay with Staphylococcus aureus [5]. The MIC with Streptococcus pneumoniae [6] was above 64 µg/mL; with Streptococcus pyogenes [7] it was 0.25 µg/mL (≈ 0.335 µM); against Streptococcus pyogenes [8], 0.004 µg/mL (≈ 0.00536 µM); in the assay on Streptococcus pyogenes [9] it was above 64 µg/mL.

Regarding `CC[C@H]1OC(=O)/C(C)=C/[C@H](C)[C@@H](O[C@@H]2O[C@H](C)C[C@H](N(C)C)[C@H]2O)[C@@](C)(OC)C[C@@H](C)C(=O)[C@H](C)[C@H]2N(NCc3ccncc3)C(=O)O[C@]12C`, the MIC was above 100 µg/mL against Staphylococcus aureus [1]; 0.03 µg/mL (≈ 0.0427 µM) against Streptococcus pneumoniae [2]; 1 µg/mL (≈ 1.42 µM) with Streptococcus pneumoniae [3]; 8 µg/mL (≈ 11.4 µM) in the assay with Haemophilus influenzae; 0.39 µg/mL (≈ 0.555 µM) with Staphylococcus aureus [4]; 0.2 µg/mL (≈ 0.285 µM) in the assay on Staphylococcus aureus [5]. Also, the MIC is above 128 µg/mL in the assay on Streptococcus pneumoniae [6], 0.5 µg/mL (≈ 0.711 µM) against Streptococcus pyogenes [7], 0.03 µg/mL (≈ 0.0427 µM) against Streptococcus pyogenes [8] and above 128 µg/mL with Streptococcus pyogenes [9].

On to `CC[C@H]1OC(=O)/C(C)=C/[C@H](C)[C@@H](O[C@@H]2O[C@H](C)C[C@H](N(C)C)[C@H]2O)[C@@](C)(OC)C[C@@H](C)C(=O)[C@H](C)[C@H]2N(NCc3ccc(C(F)(F)F)cc3)C(=O)O[C@]12C`, for which the MIC in the assay with Staphylococcus aureus [1] was 100 µg/mL (≈ 130 µM); against Streptococcus pneumoniae [2], 0.06 µg/mL (≈ 0.0779 µM); with Streptococcus pneumoniae [3], 2 µg/mL (≈ 2.6 µM); against Haemophilus influenzae it was 16 µg/mL (≈ 20.8 µM); in the assay on Staphylococcus aureus [4] it was 0.78 µg/mL (≈ 1.01 µM); against Staphylococcus aureus [5] it was 0.78 µg/mL (≈ 1.01 µM). For the same compound, the MIC in the assay with Streptococcus pneumoniae [6] worked out at 16 µg/mL (≈ 20.8 µM); with Streptococcus pyogenes [7], 2 µg/mL (≈ 2.6 µM); against Streptococcus pyogenes [8], 0.06 µg/mL (≈ 0.0779 µM); against Streptococcus pyogenes [9], 16 µg/mL (≈ 20.8 µM).

As to `CC[C@H]1OC(=O)/C(C)=C/[C@H](C)[C@@H](O[C@@H]2O[C@H](C)C[C@H](N(C)C)[C@H]2O)[C@@](C)(OC)C[C@@H](C)C(=O)[C@@H](C)[C@H]2N(N)C(=O)O[C@]12C`, the MIC against Staphylococcus aureus [1] was above 100 µg/mL; against Streptococcus pneumoniae [2] it was 8 µg/mL (≈ 13.1 µM); in the assay on Streptococcus pneumoniae [3], 16 µg/mL (≈ 26.2 µM); against Haemophilus influenzae, above 128 µg/mL; with Staphylococcus aureus [4], 50 µg/mL (≈ 81.7 µM); against Staphylococcus aureus [5], 50 µg/mL (≈ 81.7 µM). The MIC was above 128 µg/mL against Streptococcus pneumoniae [6], 32 µg/mL (≈ 52.3 µM) in the assay with Streptococcus pyogenes [7], 8 µg/mL (≈ 13.1 µM) against Streptococcus pyogenes [8] and above 128 µg/mL with Streptococcus pyogenes [9].

Regarding `CC[C@H]1OC(=O)/C(C)=C/[C@H](C)[C@@H](O[C@@H]2O[C@H](C)C[C@H](N(C)C)[C@H]2O)[C@@](C)(OC)C[C@@H](C)C(=O)[C@H](C)[C@H]2N(NCc3ccc(N(C)C)cc3)C(=O)O[C@]12C`, the MIC is above 100 µg/mL in the assay with Staphylococcus aureus [1]; 0.125 µg/mL (≈ 0.168 µM) against Streptococcus pneumoniae [2]; 1 µg/mL (≈ 1.34 µM) in the assay on Streptococcus pneumoniae [3]; 16 µg/mL (≈ 21.5 µM) against Haemophilus influenzae; 0.2 µg/mL (≈ 0.268 µM) against Staphylococcus aureus [4]; 0.2 µg/mL (≈ 0.268 µM) with Staphylococcus aureus [5]. In addition, the MIC was above 128 µg/mL in the assay with Streptococcus pneumoniae [6], 1 µg/mL (≈ 1.34 µM) in the assay on Streptococcus pyogenes [7], 0.125 µg/mL (≈ 0.168 µM) in the assay on Streptococcus pyogenes [8] and 128 µg/mL (≈ 172 µM) in the assay on Streptococcus pyogenes [9].

As for `CC[C@H]1OC(=O)/C(C)=C/[C@H](C)[C@@H](O[C@@H]2O[C@H](C)C[C@H](N(C)C)[C@H]2O)[C@@](C)(OC)C[C@@H](C)C(=O)[C@H](C)[C@H]2N(NCc3ccc(O)c(O)c3)C(=O)O[C@]12C`, the MIC against Staphylococcus aureus [1] was above 100 µg/mL; in the assay on Streptococcus pneumoniae [2] it was 1 µg/mL (≈ 1.36 µM); in the assay on Streptococcus pneumoniae [3], 2 µg/mL (≈ 2.73 µM); with Haemophilus influenzae, 32 µg/mL (≈ 43.6 µM); against Staphylococcus aureus [4] it was 0.78 µg/mL (≈ 1.06 µM); in the assay on Staphylococcus aureus [5] it was 0.78 µg/mL (≈ 1.06 µM). Moreover, the MIC against Streptococcus pneumoniae [6] was above 128 µg/mL; in the assay on Streptococcus pyogenes [7], 16 µg/mL (≈ 21.8 µM); with Streptococcus pyogenes [8], 1 µg/mL (≈ 1.36 µM); in the assay with Streptococcus pyogenes [9] it was above 128 µg/mL.

On to `CC[C@H]1OC(=O)/C(C)=C/[C@H](C)[C@@H](O[C@@H]2O[C@H](C)C[C@H](N(C)C)[C@H]2O)[C@@](C)(OC)C[C@@H](C)[C@H]2[C@H](C)[C@H]3N(C(=O)O[C@]13C)N2CCCc1ccccc1`, for which the MIC with Staphylococcus aureus [1] is 100 µg/mL (≈ 140 µM); against Streptococcus pneumoniae [2] it was 16 µg/mL (≈ 22.4 µM); with Streptococcus pneumoniae [3], 64 µg/mL (≈ 89.6 µM); against Haemophilus influenzae, above 64 µg/mL; in the assay on Staphylococcus aureus [4], 100 µg/mL (≈ 140 µM); with Staphylococcus aureus [5], 50 µg/mL (≈ 70 µM). The MIC against Streptococcus pneumoniae [6] turned out to be 64 µg/mL (≈ 89.6 µM); against Streptococcus pyogenes [7], 64 µg/mL (≈ 89.6 µM); with Streptococcus pyogenes [8], 16 µg/mL (≈ 22.4 µM); against Streptococcus pyogenes [9], 64 µg/mL (≈ 89.6 µM).

Turning to `CC[C@H]1OC(=O)[C@H](C)[C@@H](O[C@H]2C[C@@](C)(OC)[C@@H](O)[C@H](C)O2)[C@H](C)[C@@H](O[C@@H]2O[C@H](C)C[C@H](N(C)C)[C@H]2O)[C@](C)(O)C[C@@H](C)C(=O)[C@H](C)[C@@H](O)[C@]1(C)O` [ERYTHROMYCIN], the MIC against Staphylococcus aureus [1] was above 100 µg/mL; against Streptococcus pneumoniae [2], 0.06 µg/mL (≈ 0.0818 µM); with Streptococcus pneumoniae [3], 16 µg/mL (≈ 21.8 µM); against Haemophilus influenzae it was 4 µg/mL (≈ 5.45 µM); in the assay with Staphylococcus aureus [4], 0.2 µg/mL (≈ 0.273 µM); in the assay with Staphylococcus aureus [5], 3.1 µg/mL (≈ 4.22 µM). Also, the MIC is above 128 µg/mL with Streptococcus pneumoniae [6], 32 µg/mL (≈ 43.6 µM) in the assay with Streptococcus pyogenes [7], 0.03 µg/mL (≈ 0.0409 µM) against Streptococcus pyogenes [8] and above 128 µg/mL in the assay on Streptococcus pyogenes [9].

Take `CC[C@H]1OC(=O)/C(C)=C/[C@H](C)[C@@H](O[C@@H]2O[C@H](C)C[C@H](N(C)C)[C@H]2O)[C@@](C)(OC)C[C@@H](C)C(=O)[C@H](C)[C@H]2N(NCc3ccccc3)C(=O)O[C@]12C`: the MIC in the assay with Staphylococcus aureus [1] is above 100 µg/mL; against Streptococcus pneumoniae [2], 0.06 µg/mL (≈ 0.0855 µM); in the assay on Streptococcus pneumoniae [3], 1 µg/mL (≈ 1.42 µM); with Haemophilus influenzae it was 8 µg/mL (≈ 11.4 µM); in the assay on Staphylococcus aureus [4], 0.39 µg/mL (≈ 0.556 µM); in the assay on Staphylococcus aureus [5], 0.2 µg/mL (≈ 0.285 µM). Further, the MIC against Streptococcus pneumoniae [6] was above 64 µg/mL; with Streptococcus pyogenes [7] it was 1 µg/mL (≈ 1.42 µM); with Streptococcus pyogenes [8], 0.03 µg/mL (≈ 0.0427 µM); against Streptococcus pyogenes [9], above 64 µg/mL.

For `CC[C@H]1OC(=O)/C(C)=C/[C@H](C)[C@@H](O[C@@H]2O[C@H](C)C[C@H](N(C)C)[C@H]2O)[C@@](C)(OC)C[C@@H](C)[C@@H]2NN3C(=O)O[C@@]1(C)[C@H]3[C@H]2C`, the MIC in the assay with Staphylococcus aureus [1] is above 100 µg/mL; against Streptococcus pneumoniae [2] it was above 128 µg/mL; against Streptococcus pneumoniae [3], above 128 µg/mL; against Haemophilus influenzae, above 128 µg/mL; in the assay on Staphylococcus aureus [4] it was above 100 µg/mL; in the assay on Staphylococcus aureus [5] it was above 100 µg/mL. Further, the MIC against Streptococcus pneumoniae [6], with Streptococcus pyogenes [7], against Streptococcus pyogenes [8] and with Streptococcus pyogenes [9] was above 128 µg/mL each time.
